Tests used:
Experiment in all cases: Test C postemergence
Format in all cases: in vivo
[1] = tested on: large (Lg) crabgrass (Digitaria sanguinalis); conditions: Digitaria sanguinalis, post-emergence, 336 h, Postemergence, scale 0 to 100, read-out: Plant response rating, Crabgrass, Large
How it was run: (§1)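 Greenhouse test; preemergence to seeds in loam/sand soil, or postemergence spray to 2-18 cm, 1- to 4-leaf plants in peat/vermiculite medium; compound in non-phytotoxic solvent plus surfactant. Visual rating vs controls at 13-15 d, 0 = no effect, 100 = complete control.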

[2] = tested on: velvetleaf (Abutilon theophrasti); conditions: Abutilon theophrasti, post-emergence, Postemergence, scale 0 to 100, read-out: Plant response rating, Velvetleaf
How it was run: as §1

[3] = tested on: Italian ryegrass (Lolium multiflorum); conditions: Lolium multiflorum, post-emergence, 336 h, Postemergence, scale 0 to 100, read-out: Plant response rating, Ryegrass, Italian
How it was run: as §1

[4] = tested on: pigweed (Amaranthus retroflexus); conditions: Amaranthus retroflexus, post-emergence, 336 h, Postemergence, scale 0 to 100, read-out: Plant response rating, Pigweed
How it was run: as §1

[5] = tested on: kochia (Kochia scoparia); conditions: Bassia scoparia, post-emergence, Postemergence, scale 0 to 100, read-out: Plant response rating, Kochia
How it was run: as §1

[6] = tested on: yellow nutsedge (Cyperus esculentus); conditions: Cyperus, post-emergence, 336 h, Postemergence, scale 0 to 100, read-out: Plant response rating, Nutsedge, Yellow
How it was run: as §1

[7] = tested on: chickweed (common chickweed, Stellaria media); conditions: Stellaria media, post-emergence, Postemergence, scale 0 to 100, read-out: Plant response rating, Chickweed
How it was run: as §1

[8] = tested on: wild oat (Avena fatua); conditions: Avena fatua, post-emergence, Postemergence, scale 0 to 100, read-out: Plant response rating, Oat, Wild
How it was run: as §1

[9] = tested on: giant foxtail (Setaria faberii); conditions: Setaria faberi, post-emergence, 336 h, Postemergence, scale 0 to 100, read-out: Plant response rating, Foxtail, Giant
How it was run: as §1

[10] = tested on: winter wheat (Triticum aestivum); conditions: Triticum aestivum, post-emergence, 336 h, Postemergence, scale 0 to 100, read-out: Plant response rating, Wheat
How it was run: as §1

[11] = tested on: johnsongrass (Sorghum halepense); conditions: Sorghum halepense, post-emergence, 336 h, Postemergence, scale 0 to 100, read-out: Plant response rating, Johnsongrass
How it was run: as §1

[12] = tested on: morningglory (Ipomoea coccinea); conditions: Ipomoea, post-emergence, 336 h, Postemergence, scale 0 to 100, read-out: Plant response rating, Morningglory
How it was run: as §1

[13] = tested on: barnyardgrass (Echinochloa crus-galli); conditions: Echinochloa crus-galli, post-emergence, Postemergence, scale 0 to 100, read-out: Plant response rating, Barnyardgrass
How it was run: as §1

[14] = tested on: blackgrass (Alopecurus myosuroides); conditions: Alopecurus myosuroides, post-emergence, 336 h, Postemergence, scale 0 to 100, read-out: Plant response rating, Blackgrass
How it was run: as §1

[15] = tested on: oilseed rape (Brassica napus); conditions: Brassica napus, post-emergence, Postemergence, scale 0 to 100, read-out: Plant response rating, Oilseed Rape
How it was run: as §1

## N#Cc1cccc(Oc2ncc(C(F)(F)F)cn2)c1Oc1ncc(Cl)cn1 [Compound 39, 2-[(5-chloro-2-pyrimidinyl)oxy]-3-[[5-(trifluoromethyl)-2-pyrimidinyl]oxy]-benzonitrile]
[1]; 16 g ai/ha
  pest or weed control at 16 g/ha: 5%
[1]; 31 g ai/ha
  pest or weed control at 31 g/ha: 5%
[1]; 62 g ai/ha
  pest or weed control at 62 g/ha: 10%
[1]; 125 g ai/ha
  pest or weed control at 125 g/ha: 10%
[2]; 31 g ai/ha
  pest or weed control at 31 g/ha: 55%
[2]; 62 g ai/ha
  pest or weed control at 62 g/ha: 60%
[2]; 125 g ai/ha
  pest or weed control at 125 g/ha: 60%
[3]; 31 g ai/ha
  pest or weed control at 31 g/ha: 0%
[3]; 62 g ai/ha
  pest or weed control at 62 g/ha: 5%
[3]; 125 g ai/ha
  pest or weed control at 125 g/ha: 10%
[4]; 31 g ai/ha
  pest or weed control at 31 g/ha: 70%
[4]; 62 g ai/ha
  pest or weed control at 62 g/ha: 90%
[4]; 125 g ai/ha
  pest or weed control at 125 g/ha: 95%
[5]; 16 g ai/ha
  pest or weed control at 16 g/ha: 90%
[5]; 31 g ai/ha
  pest or weed control at 31 g/ha: 95%
[5]; 62 g ai/ha
  pest or weed control at 62 g/ha: 100%
[5]; 125 g ai/ha
  pest or weed control at 125 g/ha: 100%
[6]; 31 g ai/ha
  pest or weed control at 31 g/ha: 5%
[6]; 62 g ai/ha
  pest or weed control at 62 g/ha: 5%
[6]; 125 g ai/ha
  pest or weed control at 125 g/ha: 5%
[7]; 16 g ai/ha
  pest or weed control at 16 g/ha: 60%
[7]; 31 g ai/ha
  pest or weed control at 31 g/ha: 60%
[7]; 62 g ai/ha
  pest or weed control at 62 g/ha: 90%
[7]; 125 g ai/ha
  pest or weed control at 125 g/ha: 90%
[8]; 31 g ai/ha
  pest or weed control at 31 g/ha: 5%
[8]; 62 g ai/ha
  pest or weed control at 62 g/ha: 10%
[8]; 125 g ai/ha
  pest or weed control at 125 g/ha: 15%
[9]; 16 g ai/ha
  pest or weed control at 16 g/ha: 10%
[9]; 31 g ai/ha
  pest or weed control at 31 g/ha: 10%
[9]; 62 g ai/ha
  pest or weed control at 62 g/ha: 10%
[9]; 125 g ai/ha
  pest or weed control at 125 g/ha: 20%
[10]; 31 g ai/ha
  plant injury at 31 g/ha: 0%
[10]; 62 g ai/ha
  plant injury at 62 g/ha: 5%
[10]; 125 g ai/ha
  plant injury at 125 g/ha: 0%
[11]; 16 g ai/ha
  pest or weed control at 16 g/ha: 5%
[11]; 31 g ai/ha
  pest or weed control at 31 g/ha: 15%
[11]; 62 g ai/ha
  pest or weed control at 62 g/ha: 10%
[11]; 125 g ai/ha
  pest or weed control at 125 g/ha: 10%
[12]; 31 g ai/ha
  pest or weed control at 31 g/ha: 75%
[12]; 62 g ai/ha
  pest or weed control at 62 g/ha: 90%
[12]; 125 g ai/ha
  pest or weed control at 125 g/ha: 85%
[13]; 16 g ai/ha
  pest or weed control at 16 g/ha: 5%
[13]; 31 g ai/ha
  pest or weed control at 31 g/ha: 15%
[13]; 62 g ai/ha
  pest or weed control at 62 g/ha: 15%
[13]; 125 g ai/ha
  pest or weed control at 125 g/ha: 25%
[14]; 16 g ai/ha
  pest or weed control at 16 g/ha: 5%
[14]; 31 g ai/ha
  pest or weed control at 31 g/ha: 10%
[14]; 62 g ai/ha
  pest or weed control at 62 g/ha: 15%
[14]; 125 g ai/ha
  pest or weed control at 125 g/ha: 30%
[15]; 31 g ai/ha
  plant injury at 31 g/ha: 5%
[15]; 62 g ai/ha
  plant injury at 62 g/ha: 40%
[15]; 125 g ai/ha
  plant injury at 125 g/ha: 40%

— patent US20170190671A1, “BIS(ARYL)CATECHOL DERIVATIVES AS HERBICIDES” (E I DU PONT DE NEMOURS AND COMPANY, priority 2014, published 2017)
